The record followed here is patent publication US11702422B2, “Imidazopyridazines as modulators of IL-17” (Janssen Pharmaceutica NV, priority 2020, dated 2023).

The subject of experiment [1] is IL-17A-induced G-CSF production in human normal keratinocyte (NHK). Briefly: NHK Assay: IL-17A-induced G-CSF production in human normal keratinocytes. The experiment is classed as cell-based. The following applies: adult normal human keratinocytes, IL-17A 5 ng/mL, 24 h, simple average if tested more than once. The method, boiled down: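 IL-17A (5 ng/mL final) was pre-incubated 1 h at rt with titrated compound and then added to adult normal human keratinocytes (5% FBS, 0.2% DMSO) for 24 h at 37° C. Supernatant G-CSF was measured by HTRF against a standard curve to derive IC50. Viability was checked by CellTiter-Glo.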

In experiment [2] the target is IL-17A(FLAG-Tagged): IL-17RA(His-Tagged) (Homo sapiens, UniProt Q16552, K93Q). In words: IL-17A(FLAG-Tagged): IL-17RA(His-Tagged) Binding Disruption Eu-HTRF Assay. The following applies: IL-17A/IL-17RA binding disruption, simple average if tested more than once. The method, boiled down: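 IC50 comes from a one-site competition fit of the HTRF 665/620 nm ratio. Compound dilutions (2-fold, 22 points) were held 1 h rt with FLAG-tagged IL-17A dimer, then His-tagged IL-17RA plus Eu-cryptate anti-FLAG and D2 anti-His antibodies were added for 2 h rt.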
A general note: In TR-FRET formats the signal depends on donor and acceptor labels being close together.

A value given as a limit tells only on which side of the number the result lay.

UniProt Q16552, sequence (Q16552 with tags, fused parts or gaps K93Q): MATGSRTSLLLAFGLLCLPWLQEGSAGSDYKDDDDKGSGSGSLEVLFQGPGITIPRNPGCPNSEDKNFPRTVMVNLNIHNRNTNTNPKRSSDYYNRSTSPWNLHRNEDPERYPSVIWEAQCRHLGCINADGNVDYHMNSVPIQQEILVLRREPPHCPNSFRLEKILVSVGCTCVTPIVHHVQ

With `N#CC1(C(NC(=O)CC2CC(F)(F)C2)c2cnn3cc([C@@H](NC(=O)c4nonc4C4CC4)C4CCC(F)(F)CC4)nc3c2)CC1` (single isomer, unassigned) [Example 424, N—((S)-(7-((S*)-(1-Cyanocyclopropyl)(2-(3,3-difluorocyclobutyl)acetamido)methyl)imidazo[1,2-b]pyridazin-2-yl)(4,4-difluorocyclohexyl)methyl)-4-cyclopropyl-1,2,5-oxadiazole-3-carboxamide], the half-inhibitory concentration (IC50) in experiment [1] stood at 40 nM; in experiment [2], 47 nM.
For `N#CC1(C(NC(=O)CC2CC(F)(F)C2)c2cnn3cc([C@@H](NC(=O)c4nonc4OCC(F)F)C4CCC(F)(F)CC4)nc3c2)CC1` (single isomer, unassigned) [Example 425, N—((S)-(7-((S*)-(1-Cyanocyclopropyl)(2-(3,3-difluorocyclobutyl)acetamido)methyl)imidazo[1,2-b]pyridazin-2-yl)(4,4-difluorocyclohexyl)methyl)-4-(2,2-difluoroethoxy)-1,2,5-oxadiazole-3-carboxamide], in that order: 20 nM and 99 nM.
On to `CC(C)n1nccc1C(=O)N[C@H](c1cn2ncc(C(NC(=O)CC3CC(F)(F)C3)C3(C#N)CC3)cc2n1)C1CCC(F)(F)CC1` (single isomer, unassigned) [Example 426, N—((S)-(7-((S*)-(1-Cyanocyclopropyl)(2-(3,3-difluorocyclobutyl)acetamido)methyl)imidazo[1,2-b]pyridazin-2-yl)(4,4-difluorocyclohexyl)methyl)-1-isopropyl-1H-pyrazole-5-carboxamide], for which the 50% inhibitory concentration (IC50) stood at 100 nM in experiment [1] and 340 nM in experiment [2].
In the case of `Cc1nonc1C(=O)N[C@H](c1cn2ncc(C(NC(=O)CC3(C(F)(F)F)CC3)C3(C#N)CC3)cc2n1)C1CCC(F)(F)CC1` (single isomer, unassigned) [Example 427, N—((S)-(7-((S*)-(1-Cyanocyclopropyl)(2-(1-(trifluoromethyl)cyclopropyl)acetamido)methyl)imidazo[1,2-b]pyridazin-2-yl)(4,4-difluorocyclohexyl)methyl)-4-methyl-1,2,5-oxadiazole-3-carboxamide], the figures for the half-maximal inhibitory concentration (IC50) in experiment [1] and in experiment [2] were 370 nM and 100 nM, respectively.
Take `CC(C)n1nccc1C(=O)N[C@H](c1cn2ncc(C(NC(=O)CC3(C(F)(F)F)CC3)C3(C#N)CC3)cc2n1)C1CCC(F)(F)CC1` (single isomer, unassigned) [Example 428, N—((S)-(7-((S*)-(1-Cyanocyclopropyl)(2-(1-(trifluoromethyl)cyclopropyl)acetamido)methyl)imidazo[1,2-b]pyridazin-2-yl)(4,4-difluorocyclohexyl)methyl)-1-isopropyl-1H-pyrazole-5-carboxamide]: the IC50 came to 120 nM in experiment [1] and 370 nM in experiment [2].
For `N#CC1(C(NC(=O)CC2CC(F)(F)C2)c2cnn3cc([C@@H](NC(=O)c4nonc4C4CC4)C4CCC(F)(F)CC4)nc3c2)CC1` (single isomer, unassigned) [Example 429, N—((S)-(7-((R*)-(1-Cyanocyclopropyl)(2-(3,3-difluorocyclobutyl)acetamido)methyl)imidazo[1,2-b]pyridazin-2-yl)(4,4-difluorocyclohexyl)methyl)-4-cyclopropyl-1,2,5-oxadiazole-3-carboxamide], in that order: greater than 20000 nM and 2000 nM.
As to `N#CC1(C(NC(=O)CC2CC(F)(F)C2)c2cnn3cc([C@@H](NC(=O)c4nonc4OCC(F)F)C4CCC(F)(F)CC4)nc3c2)CC1` (single isomer, unassigned) [Example 430, N—((S)-(7-((R*)-(1-Cyanocyclopropyl)(2-(3,3-difluorocyclobutyl)acetamido)methyl)imidazo[1,2-b]pyridazin-2-yl)(4,4-difluorocyclohexyl)methyl)-4-(2,2-difluoroethoxy)-1,2,5-oxadiazole-3-carboxamide], the figures for the concentration for half-maximal inhibition (IC50) in experiment [1] and in experiment [2] were 12000 nM and 1600 nM, respectively.
The matching figures for `CC(C)n1nccc1C(=O)N[C@H](c1cn2ncc(C(NC(=O)CC3CC(F)(F)C3)C3(C#N)CC3)cc2n1)C1CCC(F)(F)CC1` (single isomer, unassigned) [Example 431, N—((S)-(7-((R*)-(1-Cyanocyclopropyl)(2-(3,3-difluorocyclobutyl)acetamido)methyl)imidazo[1,2-b]pyridazin-2-yl)(4,4-difluorocyclohexyl)methyl)-1-isopropyl-1H-pyrazole-5-carboxamide]: greater than 20000 nM and 3800 nM.
The matching figures for `Cc1nonc1C(=O)N[C@H](c1cn2ncc(C(NC(=O)CC3(C(F)(F)F)CC3)C3(C#N)CC3)cc2n1)C1CCC(F)(F)CC1` (single isomer, unassigned) [Example 432, N—((S)-(7-((R*)-(1-Cyanocyclopropyl)(2-(1-(trifluoromethyl)cyclopropyl)acetamido)methyl)imidazo[1,2-b]pyridazin-2-yl)(4,4-difluorocyclohexyl)methyl)-4-methyl-1,2,5-oxadiazole-3-carboxamide]: greater than 20000 nM and 3700 nM.
Turning to `N#CC1(C(NC(=O)CC2(C(F)(F)F)CC2)c2cnn3cc([C@@H](NC(=O)c4nonc4C4CC4)C4CCC(F)(F)CC4)nc3c2)CC1` (single isomer, unassigned) [Example 433, N—((S)-(7-((R*)-(1-Cyanocyclopropyl)(2-(1-(trifluoromethyl)cyclopropyl)acetamido)methyl)imidazo[1,2-b]pyridazin-2-yl)(4,4-difluorocyclohexyl)methyl)-4-cyclopropyl-1,2,5-oxadiazole-3-carboxamide], the IC50 was greater than 20000 nM in experiment [1] (Homo sapiens, Keratinocyte) and 1300 nM in experiment [2].
In the case of `CC(C)n1nccc1C(=O)N[C@H](c1cn2ncc(C(NC(=O)CC3(C(F)(F)F)CC3)C3(C#N)CC3)cc2n1)C1CCC(F)(F)CC1` (single isomer, unassigned) [Example 434, N—((S)-(7-((R*)-(1-Cyanocyclopropyl)(2-(1-(trifluoromethyl)cyclopropyl)acetamido)methyl)imidazo[1,2-b]pyridazin-2-yl)(4,4-difluorocyclohexyl)methyl)-1-isopropyl-1H-pyrazole-5-carboxamide], the half-maximal inhibitory concentration (IC50) in experiment [1] was greater than 20000 nM; in experiment [2], 3300 nM.
With `Cc1nonc1C(=O)N[C@H](c1cn2ncc(C(NC(=O)C(F)(F)CC3CC3)C3(C#N)CC3)cc2n1)C1CCC(F)(F)CC1` (single isomer, unassigned) [Example 435, N—((S)-(7-((R*)-(1-Cyanocyclopropyl)(3-cyclopropyl-2,2-difluoropropanamido)methyl)imidazo[1,2-b]pyridazin-2-yl)(4,4-difluorocyclohexyl)methyl)-4-methyl-1,2,5-oxadiazole-3-carboxamide], the half-inhibitory concentration (IC50) in experiment [1] (Homo sapiens, Keratinocyte) was greater than 20000 nM; in experiment [2] it was 3800 nM.
For `N#CC1(C(NC(=O)C(F)(F)CC2CC2)c2cnn3cc([C@@H](NC(=O)c4nonc4C4CC4)C4CCC(F)(F)CC4)nc3c2)CC1` (single isomer, unassigned) [Example 436, N—((S)-(7-((R*)-(1-Cyanocyclopropyl)(3-cyclopropyl-2,2-difluoropropanamido)methyl)imidazo[1,2-b]pyridazin-2-yl)(4,4-difluorocyclohexyl)methyl)-4-cyclopropyl-1,2,5-oxadiazole-3-carboxamide], in that order: greater than 20000 nM and 1300 nM.
In the case of `CC(C)n1nccc1C(=O)N[C@H](c1cn2ncc(C(NC(=O)C(F)(F)CC3CC3)C3(C#N)CC3)cc2n1)C1CCC(F)(F)CC1` (single isomer, unassigned) [Example 437, N—((S)-(7-((R*)-(1-Cyanocyclopropyl)(3-cyclopropyl-2,2-difluoropropanamido)methyl)imidazo[1,2-b]pyridazin-2-yl)(4,4-difluorocyclohexyl)methyl)-1-isopropyl-1H-pyrazole-5-carboxamide], the half-maximal inhibitory concentration (IC50) in experiment [1] (Homo sapiens, Keratinocyte) is greater than 20000 nM; in experiment [2] it was 3800 nM.
As for `Cc1nonc1C(=O)N[C@H](c1cn2ncc(C(CC3CCC3)NC(=O)CC3CC(F)(F)C3)cc2n1)C1CCC(F)(F)CC1` (single isomer, unassigned) [Example 438, N—((S)-(7-((R*)-2-Cyclobutyl-1-(2-(3,3-difluorocyclobutyl)acetamido)ethyl)imidazo[1,2-b]pyridazin-2-yl)(4,4-difluorocyclohexyl)methyl)-4-methyl-1,2,5-oxadiazole-3-carboxamide], the concentration for half-maximal inhibition (IC50) worked out at 8000 nM in experiment [1] and 470 nM in experiment [2].
Consider `Cc1nonc1C(=O)N[C@H](c1cn2ncc(C(CC3CCC3)NC(=O)CC3CC(F)(F)C3)cc2n1)C1CCC(F)(F)CC1` (single isomer, unassigned) [Example 439, N—((S)-(7-((S*)-2-Cyclobutyl-1-(2-(3,3-difluorocyclobutyl)acetamido)ethyl)imidazo[1,2-b]pyridazin-2-yl)(4,4-difluorocyclohexyl)methyl)-4-methyl-1,2,5-oxadiazole-3-carboxamide], for which the results for the IC50 in experiment [1] and in experiment [2] were 150 nM and 99 nM, respectively.
As for `CC(C)n1nccc1C(=O)N[C@H](c1cn2ncc(C(CC3CCC3)NC(=O)CC3CC(F)(F)C3)cc2n1)C1CCC(F)(F)CC1` (single isomer, unassigned) [Example 440, N—((S)-(7-((R*)-2-Cyclobutyl-1-(2-(3,3-difluorocyclobutyl)acetamido)ethyl)imidazo[1,2-b]pyridazin-2-yl)(4,4-difluorocyclohexyl)methyl)-1-isopropyl-1H-pyrazole-5-carboxamide], the concentration for half-maximal inhibition (IC50) was 59 nM in experiment [1] and 92 nM in experiment [2].

For orientation: IC50 means the concentration at which inhibition is half-maximal. Lower therefore signals inhibition by little substance.
